Measured values reported in US20060104969A1, “Compositions and methods for enhancing structural and functional nervous system reorganization and recovery” (Massachusetts Institute of Technology, priority 2004, published 2006).

Key:
axon growth = details: cited from earlier work
[1] = tested on: dendritic spines of layer V pyramidal neurons in visual cortex slices; experiment: Spine motility in acute visual cortex slices before and after enzyme application (two-photon imaging); assay type: cell-based, mice; details: p28 non-deprived slices; 45 minute enzyme application; tPA 0.5 μg/mL without exogenous plasminogen, plasmin 0.2 U/mL; p<0.0001
Protocol: Two photon imaging. Mice were prepared for in vivo imaging and imaged as described previously (Majewska and Sur, 2003). Briefly, primary visual cortex was identified using stereotaxic coordinates and either a small craniotomy was drilled in this area, or the skull was thinned without making a craniotomy. Imaging was performed with a custo m-made two-photon microscope consisting of a Ti:S laser (Tsunami, Spectra-physics, Menlo Park, Calif.) pumped by a 10W solid state source (Millennia, Spectra-physics) coupled to a modified Fluoview confocal scanhead (Olympus, Melville, N.Y.). Superficial dendrites were initially identified with wide-field epi-fluorescence illumination, and were subsequently imaged using a 60×, 0.9 N.A. lens with digital zoom (5-10×). Volumetric z-stacks were typically collected with a 800×600 acquisition window with 0.5-1 μm z-steps every five minutes over two hours. […]
Z-stack images were exported to MATLAB (Mathworks, Natick, Mass.) and processed using custom algorithms. Spine motility was analyzed on two-dimensional projections in ImageJ (NIH, Bethesda, Md.), where motility was defined as the average change in spine length per unit time (Lendvai et al., 2000; Majewska and Sur, 2003). […]

[2] = tested on: rats with spinal cord injury (SCI); experiment: Recovery of locomotor function (BBB scale) after T10 contusive spinal cord injury; assay type: in vivo, Sprague-Dawley rats
Description: FIGS. 8A and 8B show the effect of tPA on recovery of locomotor function graded on the BBB scale (y-axis; Basso et al., 1995 J. Neurotrauma) that ranges from 21 in normal rats to 0 in rats with complete hind limb paralysis. FIG. 8A presents a time course in which data points represent the group average±SEM (n=3/group) scored at different time points post T10 contusive injury. […] The dip of the curves starting at week 7 in both of the experimental groups was caused by the intra-cerebral cortex injections of axonal tract tracer BDA which was done at week 6 after injury. FIG. 8B presents a bar graph showing results of a second experiment in which data points represent the group average±SEM (n=7/group).
In a first set of experiments, 6 female Sprague-Dawley rats were anesthetized and spinal cord injury (SCI) was induced at TIO by using the New York University impactor with a 10 gm weight and a 12.5 mm weight drop. Behavioral tests were conducted on the first post-operative day and then weekly. The BBB (Basso, Beattie, Bresnahan) behavioral test was used to examine hind limb reflexes as well as coordinated use of the hind limbs (Basso et al., 1995; Basso, et al., 1996). This “BBB” scale has been adopted by the Multicenter Animal Spinal Cord Injury Study and by other workers in the field. […]

[3] = tested on: spinal cord injury epicenter tissue; experiment: Histological analysis of the spinal cord injury epicenter (hematoxylin and eosin, solvent blue); assay type: in vivo, Sprague-Dawley rats
Description: FIG. 9 presents micrographs showing the overall microscopic difference in injury epicenter pathology between rats receiving tPA or vehicle in the area of residual total tissue (hematoxylin and eosin stain).
FIG. 10 presents micrographs showing the overall difference between rats receiving tPA (left panel) or vehicle (right panel) in the typical cross-sectional area of residual total white matter (WM) at the injury epicenter (e.g. WM+hypomyelinated WM). […] In contrast, SB stain in the vehicle treated spinal cord was much weaker, indicating much lower quantity presence of myelin in the tissue.
Sections were stained with solvent blue [SB]/hematoxylin and eosin as described in Teng and Wrathall, 1997.
Three days post-operatively, a second operation was conducted at T8-T9 for a bolus micro-injection of 10 μg of tPA (human two-chain tissue plasminogen activator; American Diagnostica, Inc.) reconstituted from lyophilized powder to 10 μg/10 μL) into three of the six rats. Following the bolus injection, an osmotic minipump (Alzet Model 2002: 14 day pump) (Durect Corp., Cupertino, Calif.) loaded with tPA (200 μL total volume, delivering 0.5 μL/hour, 10 μg tPA/day) was implanted at the side of injury and delivered tPA for 10 consecutive days. […]

[4] = tPA activity in the solution remaining in implanted minipumps; assay type: physicochemical; details: rat body temperature; delivered from a minipump reservoir
Protocol: Three days post-operatively, a second operation was conducted at T8-T9 for a bolus micro-injection of 10 μg of tPA (human two-chain tissue plasminogen activator; American Diagnostica, Inc.) reconstituted from lyophilized powder to 10 μg/10 μL) into three of the six rats. Following the bolus injection, an osmotic minipump (Alzet Model 2002: 14 day pump) (Durect Corp., Cupertino, Calif.) loaded with tPA (200 μL total volume, delivering 0.5 μL/hour, 10 μg tPA/day) was implanted at the side of injury and delivered tPA for 10 consecutive days. At the 6th post-operative week, BDA and Fluorogold injections were made in cortex to assess the extent of corticospinal tract regrowth and reconnection, and at the 10th post-operative week, animals were perfused and their spinal cords were removed for histological analysis. Implanted minipumps were saved for analysis of tPA activity in the remaining solution.

[5] = tested on: rats with middle cerebral artery occlusion (MCAO); experiment: Forelimb inhibition behavioral test after middle cerebral artery occlusion (MCAO); assay type: in vivo; details: intraventricular infusion 2 or 10 μg/day for 7 days, started 2 days after MCAO
Protocol: Twenty rats were trained on a battery of behavioral tasks until they achieved an asymptotic level of competence. Rats then received occlusion of the middle cerebral artery (MCAO) according to standard procedures. […] At the time of MCAO surgery, 10 of the 20 rats were also implanted with an osmotic mini-pump (Alzet model 2001, 7 day pump with […] and 1.0 μL/hour infusion) for intraventricular infusion contralateral to the site of the MCAO. The mini-pumps were filled with human two-chain tissue plasminogen activator (tPA; American Diagnostica, Inc.) at two different concentrations: 5 animals received 2 μg/day and 5 animals received 10 μg/day. tPA treatment was initiated 2 days following MCAO and was maintained for 7 days. Control and tPA-treated rats were subsequently tested weekly for behavioral recovery.
Initial results regarding one of the behavioral tests, forelimb inhibition, are striking. Normal animals rarely use their forelimbs while swimming across a test basin, a phenomenon referred to as “inhibition”. After stroke, this inhibition is reduced, so that forelimb use increases. […] On other tests, there was less difference between tPA treated animals and controls though this and other data is still being analyzed.

[6] = tested on: dendritic spines in visual cortex slices contralateral to the deprived eye; experiment: Spine motility in visual cortex slices after monocular deprivation, followed by plasmin application (occlusion test); assay type: cell-based, mice
Protocol: Mice (C57/B16) expressing GFP (strain GFP-M) or YFP (strain YFP-H) in a subset of their cortical neurons (principally layer V pyramidal neurons) (Feng, G., et al., 2000) were anesthetized at postnatal days 26 or 40 and maintained in deep anesthesia using isoflurane. Monocular deprivation was performed by scoring the eyelids and then sealing them shut with tissue adhesive (Vetbond, 3M, St. Paul, Minn.). Mice were checked over the next 2-3 days to ensure that the eye remained closed. A total of 18 mice were used in the in vivo experiments (6 control, 4 deprived at p28; 4 control, 4 deprived at p42) and 24 mice were used in the slice experiments (15 control, 9 deprived).
Z-stack images were exported to MATLAB (Mathworks, Natick, Mass.) and processed using custom algorithms. Spine motility was analyzed on two-dimensional projections in ImageJ (NIH, Bethesda, Md.), where motility was defined as the average change in spine length per unit time (Lendvai et al., 2000; Majewska and Sur, 2003). Spine turnover was rarely observed in single imaging sessions. All values are presented as mean±standard error of the mean and all statistical analyses were performed using either a parametric t-test statistic for populations of monocularly deprived and control spines, or a parametric paired t-test statistic for enzymatic treatments.
Slice preparation and enzyme application. […]

O=c1onc2cnc3ccccc3n12 [ODQ]
effective dose for influencing axon growth (axon growth): about 10 uM

tissue plasminogen activator [tPA]
increase in spine motility [1]: 17%
final score on the BBB test ([2]; after 10 weeks of recovery, first experiment, n=3/group, 10 μg bolus then 10 μg tPA/day for 10 days by minipump, baseline 21): ~9
BBB scores relative to control animals ([2]; second experiment, n=7/group, tPA delivered for 7 days): improved BBB scores
appearance of the contusion site, hematoxylin and eosin staining ([3]; in comparison to control): remarkably clean
integrity of residual white matter at the injury epicenter, solvent blue stain ([3]; versus vehicle): significantly protected the integrity of the residual white matter
time for which tPA maintains enzymatic activity [4]: up to 10 days
forelimb use while swimming (forelimb inhibition) [5]: much less than control animals

B1: plasmin (protein, UniProt P00747 20-580; P00747 581-810, looked up)
Plasmin heavy chain A: EPLDDYVNTQGASLFSVTKKQLGAGSIEECAAKCEEDEEFTCRAFQYHSKEQQCVIMAENRKSSIIIRMRDVVLFEKKVYLSECKTGNGKNYRGTMSKTKNGITCQKWSSTSPHRPRFSPATHPSEGLEENYCRNPDNDPQGPWCYTTDPEKRYDYCDILECEEECMHCSGENYDGKISKTMSGLECQAWDSQSPHAHGYIPSKFPNKNLKKNYCRNPDRELRPWCFTTDPNKRWELCDIPRCTTPPPSSGPTYQCLKGTGENYRGNVAVTVSGHTCQHWSAQTPHTHNRTPENFPCKNLDENYCRNPDGKRAPWCHTTNSQVRWEYCKIPSCDSSPVSTEQLAPTAPPELTPVVQDCYHGDGQSYRGTSSTTTTGKKCQSWSSMTPHRHQKTPENYPNAGLTMNYCRNPDADKGPWCFTTDPSVRWEYCNLKKCSGTEASVVAPPPVVLLPDVETPSEEDCMFGNGKGYRGKRATTVTGTPCQDWAAQEPHRHSIFTPETNPRAGLEKNYCRNPDGDVGGPWCYTTNPRKLYDYCDVPQCAAPSFDCGKPQVEPKKCPGR
Plasmin light chain B: VVGGCVAHPHSWPWQVSLRTRFGMHFCGGTLISPEWVLTAAHCLEKSPRPSSYKVILGAHQEVNLEPHVQEIEVSRLFLEPTRKDIALLKLSSPAVITDKVIPACLPSPNYVVADRTECFITGWGETQGTFGAGLLKEAQLPVIENKVCNRYEFLNGRVQSTELCAGHLAGGTDSCQGDSGGPLVCFEKDKYILQGVTSWGLGCARPNKPGVYVRVSRFVTWIEGVMRNN
modifications: Plasmin
notes: serine protease whose major substrate is fibrin (Sigma)
increase in spine motility [1]: 21%
spine motility after additional plasmin application, superficial layers ([6]; regions where motility is already upregulated, n=88, p>0.5): unaffected
spine motility after plasmin treatment, middle regions ([6]; regions where motility is unchanged by deprivation, n=60, p<0.0001): significantly increased
